“Also recorded” adds a separate entry of the source.
Key:
[1] = test system: PgR and GREB1 gene expression in MCF-7 cells; test: Estrogen-responsive gene expression; type: cell-based; conditions: for PgR and GREB1 RNA level (gene stimulation): MCF-7, 10^−8 M E2, 10^−6 M Liq or Iso-Liq, 3×10^−6 M L1–L7, 24 h
human ERα = molecular target: T1, human ERα (Homo sapiens, UniProt P03372); test: Competitive radiometric binding assay with [3H]-estradiol tracer, ERα; conditions: RBA of estradiol set to 100%; 2 nM [3H]-estradiol, 18–24 h at 0 °C
T1 sequence (P03372 1-595): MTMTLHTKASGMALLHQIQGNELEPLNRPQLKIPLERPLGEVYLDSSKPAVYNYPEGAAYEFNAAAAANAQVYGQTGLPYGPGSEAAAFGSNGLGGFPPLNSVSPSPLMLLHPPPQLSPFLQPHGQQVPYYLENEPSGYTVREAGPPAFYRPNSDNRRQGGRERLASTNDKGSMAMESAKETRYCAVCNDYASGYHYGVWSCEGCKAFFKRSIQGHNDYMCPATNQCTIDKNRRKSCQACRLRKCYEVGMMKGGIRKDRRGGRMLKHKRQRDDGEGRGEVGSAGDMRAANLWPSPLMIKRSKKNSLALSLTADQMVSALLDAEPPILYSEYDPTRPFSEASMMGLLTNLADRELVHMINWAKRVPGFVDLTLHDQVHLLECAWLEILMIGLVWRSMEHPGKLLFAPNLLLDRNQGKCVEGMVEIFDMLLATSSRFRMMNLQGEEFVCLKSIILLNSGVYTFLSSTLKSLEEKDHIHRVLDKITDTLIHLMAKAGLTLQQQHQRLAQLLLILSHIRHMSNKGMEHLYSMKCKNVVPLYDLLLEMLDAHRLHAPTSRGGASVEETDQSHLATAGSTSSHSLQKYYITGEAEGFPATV

human ERβ = human ERβ (Homo sapiens, UniProt Q92731); conditions: for RBA (mean ± SD) ERβ: RBA of estradiol set to 100%, 2 nM [3H]-estradiol, 18–24 h at 0 °C
MCF-7 cells = test: Proliferation of MCF-7 cells; type: cell-based; conditions: 6 days; two highest concentrations 10^−6 and 3×10^−6 M
[2] = test system: proteinase inhibitor 9 (PI9) expression in HepG2 + ERα cells; test: PI9 gene expression in HepG2 cells stably expressing ERα; conditions: 10^−8 M EE2; 3×10^−6 M Liq, Iso-Liq, L1–L7; 24 h
[3] = test system: Ki67 gene expression in MCF-7 cells; test: Ki67 gene expression in MCF-7 cells by qPCR; conditions: for suppression of E2-elicited increase in Ki67 mRNA: 3×10^−6 M component with 10^−9 M E2, 24 h; for Ki67 RNA expression (stimulation): 10^−8 M E2, 10^−6 M Liq or Iso-Liq, 3×10^−6 M L1–L7, 24 h
[4] = test system: E2-stimulated PgR and GREB1 gene expression in MCF-7 cells; test: Inhibition of E2-stimulated PgR and GREB1 gene expression in MCF-7 cells; conditions: 3×10^−6 M component with 10^−9 M E2, 24 h

Sequence of human ERβ (Q92731 whole entry): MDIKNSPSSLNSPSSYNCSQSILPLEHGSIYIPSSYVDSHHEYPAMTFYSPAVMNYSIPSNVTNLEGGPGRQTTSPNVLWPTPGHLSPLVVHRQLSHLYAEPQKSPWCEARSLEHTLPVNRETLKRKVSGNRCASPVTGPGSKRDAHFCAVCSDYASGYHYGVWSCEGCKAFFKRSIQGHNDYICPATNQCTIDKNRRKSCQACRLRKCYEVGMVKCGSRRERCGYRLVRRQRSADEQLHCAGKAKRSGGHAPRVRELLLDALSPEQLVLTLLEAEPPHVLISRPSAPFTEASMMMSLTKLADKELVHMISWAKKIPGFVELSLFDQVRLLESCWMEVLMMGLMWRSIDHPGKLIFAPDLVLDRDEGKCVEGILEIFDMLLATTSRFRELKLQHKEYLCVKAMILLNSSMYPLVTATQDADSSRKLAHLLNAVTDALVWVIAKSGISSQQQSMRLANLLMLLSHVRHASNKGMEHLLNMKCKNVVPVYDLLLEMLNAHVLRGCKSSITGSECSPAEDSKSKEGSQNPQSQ

Row | Compound | PgR and GREB1 RNA level (gene stimulation) [1] | RBA (mean ± SD) ERα (human ERα) [%] | ERβ/ERα ratio of RBA (human ERβ) | RBA (mean ± SD) ERβ (human ERβ) [%] | stimulation of MCF-7 cell proliferation (MCF-7 cells) | PI9 expression in HepG2 + ERα cells [2] | potency in stimulating estrogen-regulated genes, fold less than E2 ([1]; efficacy nearly equivalent to E2) | suppression of E2-elicited increase in Ki67 mRNA [3] | Ki67 RNA expression (stimulation) [3] | block of E2-stimulated GREB1 expression [4] | block of E2-stimulated PgR expression [4] | preference for ERβ over ERα (human ERβ; from RBA values) | effect of antiestrogen cotreatment on increases in Ki67 RNA expression ([3]; 10^−6 M ICI 182,780, 24 h)
1 | C[C@]12CC[C@@H]3c4ccc(O)cc4CC[C@H]3[C@@H]1CC[C@@H]2O [E2, estradiol, reference compound] | markedly increased |  |  |  |  |  |  |  |  |  |  |  | 
2 | COc1ccc(-c2coc3cc(O)ccc3c2=O)cc1O [L2, Calycosin] | effective in increasing PgR and GREB1 expression | 0.010 ± 0.004 | 2.7 | 0.027 ± 0.004 |  |  |  |  |  |  |  |  | 
3 | O=C(/C=C/c1ccc(O)cc1)c1ccc(O)cc1O [Iso-Liq, Iso-liquiritigenin, reference compound] | markedly increased |  |  |  | stimulated cell proliferation quite strongly | stimulated expression |  |  |  |  |  |  | 
4 | COc1ccc(C2COc3cc(O)ccc3C2)c(O)c1 (centres unmarked) [L4, Vestitol] | effective in increasing PgR and GREB1 expression | 0.062 ± 0.008 | 0.6 | 0.039 ± 0.011 | stimulated cell proliferation quite strongly |  | ca. 10,000 fold |  |  |  |  |  | 
5 | COc1c(CC=C(C)C)c(O)cc(O)c1-c1coc2cc(O)ccc2c1=O [L7, Glicoricone] | little or no change in gene expression; also recorded: did not stimulate expression of PgR or GREB1 | 0.008 ± 0.001 | 2.4 | 0.019 ± 0.004 | inactive in eliciting elevation of cell proliferation |  |  | partially suppressed | did not stimulate Ki67 expression | only partially; also recorded: most effective antagonist of GREB1 stimulation by E2 | almost fully |  | 
6 | CC1(C)C=Cc2c(ccc3c2OC[C@@H](c2ccc(O)cc2O)C3)O1 [L1, Glabridin] | little or no change in gene expression; also recorded: did not stimulate expression of PgR or GREB1 | 0.075 ± 0.015 | 1.2 | 0.091 ± 0.001 | inactive in eliciting elevation of cell proliferation |  |  | not effective in suppressing | did not stimulate Ki67 gene expression | only partially | almost fully |  | 
7 | COc1c(CC=C(C)C)c(O)cc2c1C[C@H](c1ccc(O)cc1O)CO2 [L5, Glyasperin C] | little or no change in gene expression; also recorded: did not stimulate expression of PgR or GREB1 | 0.010 ± 0.001 | 11.1 | 0.111 ± 0.004 | inactive in eliciting elevation of cell proliferation |  |  | not effective in suppressing | did not stimulate Ki67 gene expression | only partially | almost fully | greater than 10 fold | 
8 | C[C@]12CC[C@@H]3c4ccc(O)cc4C[C@@H](CCCCCCCCC[S+]([O-])CCCC(F)(F)C(F)(F)F)[C@H]3[C@@H]1CC[C@@H]2O (some centres unmarked) [ICI 182,780, reference compound] |  |  |  |  |  |  |  |  |  |  |  |  | eliminated
9 | O=C1C[C@@H](c2ccc(O)cc2)Oc2cc(O)ccc21 [Liq, Liquiritigenin, reference compound] | markedly increased | <0.001 |  |  | stimulated cell proliferation quite strongly | stimulated expression |  |  |  |  |  |  | 
10 | C#C[C@]1(O)CC[C@H]2[C@@H]3CCc4cc(O)ccc4[C@H]3CC[C@@]21C [EE2, ethinyl estradiol] |  |  |  |  |  | stimulated expression |  |  |  |  |  |  | 
11 | COc1c(CC=C(C)C)c(O)cc2oc(=O)c(-c3ccc(O)cc3O)cc12 [L6, Glycycoumarin] | effective in increasing PgR and GREB1 expression | 0.017 ± 0.001 | 2.4 | 0.040 ± 0.001 |  |  |  |  | all compounds except for L1, L5, L6 and L7 increased Ki67 RNA expression |  |  |  | 
